# In US11505547B2, “Compounds” (STEP PHARMA S.A.S., priority 2017, dated 2022):
# Biological target: T1, human CTPS1 (Homo sapiens, UniProt P17812)
# T1 construct: purchased Proteros biostructures GmbH
# T1 sequence (P17812 1-591): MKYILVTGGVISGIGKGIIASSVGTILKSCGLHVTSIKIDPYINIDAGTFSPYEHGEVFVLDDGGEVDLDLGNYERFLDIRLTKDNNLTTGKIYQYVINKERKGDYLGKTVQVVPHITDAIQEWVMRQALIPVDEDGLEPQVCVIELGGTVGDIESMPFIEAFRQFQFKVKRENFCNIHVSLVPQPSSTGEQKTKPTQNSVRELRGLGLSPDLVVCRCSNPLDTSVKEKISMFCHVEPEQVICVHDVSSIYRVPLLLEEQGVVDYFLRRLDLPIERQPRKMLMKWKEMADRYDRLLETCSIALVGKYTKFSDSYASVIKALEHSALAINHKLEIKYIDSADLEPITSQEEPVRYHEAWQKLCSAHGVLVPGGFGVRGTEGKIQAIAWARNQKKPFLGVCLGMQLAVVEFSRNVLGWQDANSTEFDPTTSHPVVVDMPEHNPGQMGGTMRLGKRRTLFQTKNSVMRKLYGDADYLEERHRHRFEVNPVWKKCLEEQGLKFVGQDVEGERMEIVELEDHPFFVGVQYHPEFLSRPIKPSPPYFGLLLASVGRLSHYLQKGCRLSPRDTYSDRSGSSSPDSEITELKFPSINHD
# Assay: Human CTPS1 enzyme inhibition, ADP-Glo Max assay
# Assay type: biochemical
# Conditions: human full length CTPS1, read-out: CTPS1 (Human CTPS1 Enzyme Inhibition data grouped by potency range, IC50)
# Description: Biological Example 1—Human CTPS1 Enzyme Inhibition
# The enzyme inhibitory activities of compounds invented against the target of interest were determined using the ADP-Glo™ Max assay (Promega, UK). Assays for human CTPS1 were performed in 1× assay buffer containing 50 mM Tris, 10 mM MgCl2, 0.01% Tween-20, pH to 8.0 accordingly. Finally, immediately before use, L-cysteine was added to the 1× assay buffer to a final concentration of 2 mM. All reagents are from Sigma-Aldrich unless specified otherwise. Human full length active C-terminal FLAG-Hiss-tag CTPS1 (UniProtKB-P17812, CTPS[1-591]-[…]) was obtained from Proteros biostructures GmbH.
# 3× human CTPS1 protein was prepared in 1× assay buffer to the final working protein concentration required for the reaction. A 2 uL volume per well of 3× human CTPS1 protein was mixed with 2 uL per well of 3× test compound (compound prepared in 1× assay buffer to an appropriate final 3× compound concentration respective to the concentration response curve designed for the compounds under test) for 10 minutes at 25° C. The enzymatic reaction was then initiated by addition of a 2 uL per well volume of a pre-mixed substrate mix (UltraPure ATP from ADP-Glo™ Max kit (0.31 mM), GTP (0.034 mM), UTP (0.48 mM) and L-glutamine (0.186 mM)) and the mixture was incubated for an appropriate amount of time within the determined linear phase of the reaction at 25° C. under sealed plate conditions with constant agitation at 500 revolutions per minute (rpm). ADP-GIo™ Max reagent was added for 60 minutes (6 uL per well) and subsequently ADP-Glo™ Max development reagent was added for 60 minutes (12 uL per well) prior to signal detection in a microplate reader (EnVision® Multilabel Reader, Perkin Elmer). Following each reagent addition over the course of the assay, assay plates were pulse centrifuged for 30 seconds at 500 rpm.
# In all cases, the enzyme converts ATP to ADP and the ADP-Glo™ Max reagent subsequently depletes any remaining endogenous ATP in the reaction system. The ADP-Glo™ Max detection reagent converts the ADP that has been enzymatically produced back into ATP and using ATP as a substrate together with luciferin for the enzyme luciferase, light is generated which produces a detectable luminescence. […] The percentage inhibition produced by each concentration of compound was calculated using the equation shown below: […]
# Percentage inhibition was then plotted against compound concentration, and the 50% inhibitory concentration (IC50) was determined from the resultant concentration-response curve.
row,SMILES,IC50 [nM]
1,"Cc1cc(-c2cncc(C(F)(F)F)n2)ccc1C(=O)NC1(c2csc(NS(=O)(=O)C3CC3)n2)CC1 [Example R83, N-(1-(2-(cyclopropanesulfonamido)thiazol-4-yl)cyclopropyl)-2-methyl-4-(6-(trifluoromethyl)pyrazin-2-yl)benzamide]",< 100
2,"CCc1cncc(-c2ccc(C(=O)NC(C)(C)c3csc(NS(=O)(=O)C4CC4)n3)c(F)c2)n1 [Example R41, N-(2-(2-(cyclopropanesuIfonamido)thiazol-4-yl)propan-2-yl)-4-(6-ethylpyrazin-2-yl)-2-fluorobenzamide]",100 to 1000
3,"O=C(NC1(c2csc(NS(=O)(=O)C3CC3)n2)CC1)c1ccc(-c2cncc(C(F)(F)F)n2)cc1 [Example R84, N-(1-(2-(cyclopropanesulfonamido)thiazol-4-yl)cyclopropyl)-4-(6-(trifluoromethyl)pyrazin-2-yl)benzamide]",< 100
4,"COc1cncc(-c2ccc(C(=O)NC(C)(C)c3csc(NS(=O)(=O)C4CC4)n3)cc2)c1 [Example R38, N-(2-(2-(cyclopropanesuIfonamido)thiazol-4-yl)propan-2-yl)-4-(5-methoxypyridin-3-yl)benzamide]",100 to 1000
5,CC(C)(NC(=O)c1ccc(-c2cncc(Cl)c2)cc1)c1csc(NS(=O)(=O)C2CC2)n1 [Example R28],< 100
6,"CC(C)(NC(=O)c1ccc(-c2cncc(OCC(F)(F)F)n2)cc1F)c1csc(NS(=O)(=O)C2CC2)n1 [Example R44, N-(2-(2-(cyclopropanesuIfonamido)thiazol-4-yl)propan-2-yl)-2-fluoro-4-(6-(2,2,2-trifluoroethoxy)pyrazin-2-yl)benzamide]",100 to 1000
7,"CCC(CC)(NC(=O)c1ccc(-c2cncc(C)c2)cc1)c1csc(NS(=O)(=O)C2CC2)n1 [Example R17, N-(3-(2-(cyclopropanesulfonamido)thiazol-4-yl)pentan-3-yl)-4-(5-methylpyridin-3-yl)benzamide]",100 to 1000
8,"CCC(NC(=O)c1ccc(-c2cncc(F)c2)cc1)c1csc(NS(=O)(=O)C2CC2)n1 (racemic) [Example R59, N-(1-(2-(cyclopropanesulfonamido)thiazol-4-yl)propyl)-4-(5-fluoropyridin-3-yl)benzamide]",100 to 1000
9,"CCc1cncc(-c2ccc(C(=O)NC(CCOC)c3csc(NS(=O)(=O)C4CC4)n3)c(F)c2)n1 (stereo not drawn) [Example R86, N-(1-(2-(cyclopropanesulfonamido)thiazol-4-yl)-3-methoxypropyl)-4-(6-ethylpyrazin-2-yl)-2-fluorobenzamide]",100 to 1000
10,"CCC(NC(=O)c1ccc(-c2cncc(F)c2)cc1)c1csc(NS(=O)(=O)C2CC2)n1 (single isomer, unassigned) [Example R68, N-(1-(2-(cyclopropanesulfonamido)thiazol-4-yl)propyl)-4-(5-fluoropyridin-3-yl)benzamide]",1000 to 10000
11,COc1cc(-c2cncc(C(F)(F)F)c2)ccc1C(=O)NC(C)(C)c1csc(NS(=O)(=O)C2CC2)n1 [Example R32],100 to 1000
12,"CCOc1cncc(-c2ccc(C(=O)NC(C)(C)c3nc(NS(=O)(=O)C4CC4)sc3C)c(F)c2)n1 [Example R74, N-(2-(2-(cyclopropanesulfonamido)-5-methylthiazol-4-yl)propan-2-yl)-4-(6-ethoxypyrazin-2-yl)-2-fluorobenzamide]",100 to 1000
13,CC(C)(NC(=O)c1ccc(-c2cncc(F)c2)cc1F)c1csc(NS(=O)(=O)C2CC2)n1 [Example R31],100 to 1000
14,"CC(C)(NC(=O)c1ccc(-c2cncc(C(F)(F)F)c2)cc1)c1csc(NS(=O)(=O)C2CC2)n1 [Example R35, N-(2-(2-(cyclopropanesulfonamido)thiazol-4-yl)propan-2-yl)-4-(5-(trifluoromethyl)pyridin-3-yl)benzamide]",< 100
15,"COCCC(NC(=O)c1ccc(-c2cncc(F)c2)cc1)c1csc(NS(=O)(=O)C2CC2)n1 (stereo not drawn) [Example R85, N-(1-(2-(cyclopropanesulfonamido)thiazol-4-yl)-3-methoxypropyl)-4-(5-fluoropyridin-3-yl)benzamide]",100 to 1000
16,"CCOc1cncc(-c2ccc(C(=O)NC(C)(C)c3csc(NS(=O)(=O)C4CC4)n3)c(C(F)(F)F)c2)n1 [Example R47, N-(2-(2-(cyclopropanesuIfonamido)thiazol-4-yl)propan-2-yl)-4-(6-ethoxypyrazin-2-yl)-2-(trifluoromethyl)benzamide]",100 to 1000

# Continued, values first:
row,IC50 [nM],SMILES
1,100 to 1000,"CCOc1cncc(-c2ccc(C(=O)NC(CC)c3csc(NS(=O)(=O)C4CC4)n3)c(F)c2)n1 (single isomer, unassigned) [Example R70, N-(1-(2-(cyclopropanesulfonamido)thiazol-4-yl)propyl)-4-(6-ethoxypyrazin-2-yl)-2-fluorobenzamide]"
2,< 100,"CC(C)Oc1cncc(-c2ccc(C(=O)NCc3csc(NS(=O)(=O)C4CC4)n3)cc2)n1 [Example R13, N-((2-(cyclopropanesulfonamido)thiazol-4-yl)methyl)-4-(6-isopropoxypyrazin-2-yl)benzamide]"
3,100 to 1000,"Cc1cncc(-c2ccc(C(=O)NC(C)(C)c3csc(NS(=O)(=O)C4CC4)n3)cc2)n1 [Example R53, N-(2-(2-(cyclopropanesulfonamido)thiazol-4-yl)propan-2-yl)-4-(6-methylpyrazin-2-yl)benzamide]"
4,< 100,"CC(C)Oc1cncc(-c2ccc(C(=O)NC(C)(C)c3csc(NS(=O)(=O)C4CC4)n3)cc2)n1 [Example R56, N-(2-(2-(cyclopropanesulfonamido)thiazol-4-yl)propan-2-yl)-4-(6-isopropoxypyrazin-2-yl)benzamide]"
5,100 to 1000,"CCOc1cncc(-c2ccc(C(=O)NC(C)(C)c3csc(NS(=O)(=O)C4CC4)n3)nc2)n1 [Example R26, N-(2-(2-(cyclopropanesulfonamido)thiazol-4-yl)propan-2-yl)-5-(6-ethoxypyrazin-2-yl)picolinamide]"
6,< 100,"CCOc1cncc(-c2ccc(C(=O)NC(CCOC)c3csc(NS(=O)(=O)C4CC4)n3)cc2)n1 (stereo not drawn) [Example R90, N-(1-(2-(cyclopropanesulfonamido)thiazol-4-yl)-3-methoxypropyl)-4-(6-ethoxypyrazin-2-yl)benzamide]"
7,< 100,"O=C(NCc1csc(NS(=O)(=O)C2CC2)n1)c1ccc(-c2cncc(C(F)(F)F)n2)cc1F [Example R10, N-((2-(cyclopropanesulfonamido)thiazol-4-yl)methyl)-2-fluoro-4-(6-(trifluoromethyl)pyrazin-2-yl)benzamide]"
8,< 100,"CCOc1cncc(-c2ccc(C(=O)NC3(c4csc(NS(=O)(=O)C5CC5)n4)CC3)nc2)n1 [Example R80, N-(1-(2-(cyclopropanesulfonamido)thiazol-4-yl)cyclopropyl)-5-(6-ethoxypyrazin-2-yl)picolinamide]"
9,< 100,"CCOc1cncc(-c2ccc(C(=O)NCc3csc(NS(=O)(=O)C4CC4)n3)cc2)n1 [Example R14, N-((2-(cyclopropanesulfonamido)thiazol-4-yl)methyl)-4-(6-ethoxypyrazin-2-yl)benzamide]"
10,100 to 1000,"CCC(NC(=O)c1ccc(-c2cncc(C)n2)cc1)c1csc(NS(=O)(=O)C2CC2)n1 (racemic) [Example R66, N-(1-(2-(cyclopropanesulfonamido)thiazol-4-yl)propyl)-4-(6-methylpyrazin-2-yl)benzamide]"
11,< 100,"O=C(NCc1csc(NS(=O)(=O)C2CC2)n1)c1ccc(-c2cncc(C(F)(F)F)n2)cc1 [Example R12, N-((2-(cyclopropanesulfonamido)thiazol-4-yl)methyl)-4-(6-(trifluoromethyl)pyrazin-2-yl)benzamide]"
